From a compilation of properties of binary mixtures (doi:10.1007/s10973-018-7399-0)

Assay: xn = mol fraction of the nth substance listed
Conditions: 93.2 kPa

CC(=O)[O-].CCCC[NH3+] + CCO
Conditions	speed of sound, 293.15 K [m/s]	speed of sound, 298.15 K [m/s]	speed of sound, 303.15 K [m/s]	speed of sound, 308.15 K [m/s]	speed of sound, 313.15 K [m/s]	viscosity, 293.15 K [mPa·s]	viscosity, 298.15 K [mPa·s]	viscosity, 303.15 K [mPa·s]	viscosity, 308.15 K [mPa·s]	viscosity, 313.15 K [mPa·s]
x1 = 0.0501	1196.2	1179.2	–	1145.8	–	1.96	1.76	–	1.44	–
x1 = 0.0992	1225.1	1208.3	1191.7	1175.2	1158.9	2.97	2.65	2.37	2.13	1.93
x1 = 0.15	–	1234.9	1218.5	1202.1	–	–	3.94	3.5	3.11	–
x1 = 0.2001	–	1258.4	1242.1	1225.9	–	–	5.77	5.08	4.49	–
x1 = 0.2511	1296.4	1280.1	1263.9	1247.8	1231.9	9.6	8.32	7.24	6.34	5.58
x1 = 0.3001	–	1299	1282.9	1266.9	–	–	11.6	10	8.67	–
x1 = 0.35	1332.8	1316.6	1300.6	–	1269	19.2	16.3	13.9	–	10.3
x1 = 0.3999	1349.1	–	1317.1	–	1285.6	26.7	–	18.9	–	13.9
x1 = 0.4483	1363.2	1347.1	1331.2	1315.5	–	36.5	30.3	25.4	21.4	–
x1 = 0.4987	–	1361	1345.2	1329.5	1314.1	–	41.2	34.1	28.4	24
x1 = 0.5503	1390.1	–	1358.3	1342.7	1327.3	69.5	–	45.9	37.9	31.6
x1 = 0.6002	1402	–	1370.2	1354.6	1339.2	94	–	60.7	49.5	40.9
x1 = 0.6511	1413.7	1397.6	1381.7	1366.1	–	128	101.1	80.6	65	–
x1 = 0.7008	–	–	1392.4	1376.8	1361.4	–	–	106	84.2	68.1
x1 = 0.7495	–	–	1402.4	1386.7	1371.3	–	–	138	109	86.6
x1 = 0.7988	–	1428.3	1412.2	1396.3	1380.9	–	235	180	140	110
x1 = 0.8496	–	–	1421.9	–	1390.4	–	–	238	–	141
x1 = 0.9015	1466	1448.3	1431.5	1415.3	1399.6	585	424	313	236	181
x1 = 0.9493	1476.4	1457.8	1440.5	1423.9	–	797	566	412	305	–
x1 = 1	1488	1468.3	–	1433	1416.7	1103	765	–	397	295
